Where two headings read alike, the source gives them in different places.
Biological target: T1, LmxCLK1 (Leishmania mexicana, UniProt E9AMP2)
T1 sequence (E9AMP2 1-422): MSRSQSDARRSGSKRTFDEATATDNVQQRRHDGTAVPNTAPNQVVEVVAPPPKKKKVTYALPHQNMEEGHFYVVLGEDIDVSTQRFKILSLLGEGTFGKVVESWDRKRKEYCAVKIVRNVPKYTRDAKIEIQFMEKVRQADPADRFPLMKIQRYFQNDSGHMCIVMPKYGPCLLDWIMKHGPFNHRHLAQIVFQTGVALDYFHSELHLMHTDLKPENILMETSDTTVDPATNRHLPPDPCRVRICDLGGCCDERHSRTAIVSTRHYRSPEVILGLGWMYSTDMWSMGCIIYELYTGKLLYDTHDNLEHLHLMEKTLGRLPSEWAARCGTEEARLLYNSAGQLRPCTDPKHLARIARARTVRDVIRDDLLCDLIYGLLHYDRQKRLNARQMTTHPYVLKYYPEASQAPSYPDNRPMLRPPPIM
Test: biochemical
Assay type: binding

[1] = DSF, 10 µM compound, 2 µM LmxCLK1, Run 1
[2] = DSF, 10 µM compound, 2 µM LmxCLK1, Run 2
[3] = DSF, 10 µM compound, 2 µM LmxCLK1, mean of two runs
[4] = DSF, 10 µM compound, 2 µM LmxCLK1, Run 1, read-out: ΔTm Run 1
[5] = DSF, 10 µM compound, 2 µM LmxCLK1, Run 2, read-out: ΔTm Run 2
[6] = DSF, 10 µM compound, 2 µM LmxCLK1, mean of two runs, read-out: ΔTm Average

Row | Structure (SMILES) | ΔTm Run 1 [1] [°C] | ΔTm Run 2 [2] [°C] | ΔTm Average [3] [°C] | ΔTm at 10 µM [4] [°C] | ΔTm at 10 µM [5] [°C] | ΔTm at 10 µM [6] [°C] | other results
1 | N#Cc1c(NC(=O)c2cccc3ccccc23)sc2c1CCCC2 [JNK Inhibitor IX] | 0.3 | -0.1 | 0.1 | – | – | – | –
2 | Cc1cc(NC(=O)c2cccc(NC(=O)/C=C/CN(C)C)c2)ccc1Nc1nccc(-c2cccnc2)n1 [JNK-IN-8] | – | – | – | 0.2 | -0.5 | -0.1 | –
3 | CN([C@@H](Cc1ccc(OS(=O)(=O)c2cccc3cnccc23)cc1)C(=O)N1CCN(c2ccccc2)CC1)S(=O)(=O)c1cccc2cnccc12 [KN-62] | – | – | – | – | – | – | ΔTm Average: -0.3; ΔTm Run 1: -0.4; ΔTm Run 2: -0.2
4 | COc1ccc(S(=O)(=O)N(CCO)c2ccccc2CN(C)C/C=C/c2ccc(Cl)cc2)cc1.O=P(O)(O)O [KN-93 Phosphate] | 0.1 | -0.5 | -0.2 | – | – | – | –
5 | CCCNC(=O)Nc1ccc(Oc2ncnc3cc(OC)c(OC)cc23)cc1Cl [KRN 633] | – | – | – | 0.1 | -0.1 | 0 | –
6 | C[C@@H]1CN(CC(=O)Nc2ccc3c(c2)Cc2cccc(-c4cc(=O)cc(N5CCOCC5)o4)c2S3)C[C@H](C)O1 [KU-60019] | – | – | – | -0.1 | -0.2 | -0.1 | –
7 | COc1ccc(-c2ccc3c(N4CCOCC4)nc(N4C[C@@H](C)O[C@@H](C)C4)nc3n2)cc1CO [KU-0063794] | – | – | – | 0.1 | 0.1 | 0.1 | –
8 | O=C(c1ccc(/C=C/c2n[nH]c3ccccc23)cc1)N1CCNCC1 [KW-2449] | – | – | – | 0.4 | 0.4 | 0.4 | –
9 | O=C(Cc1ccc(-c2ccc(OCCN3CCOCC3)cc2)cn1)NCc1ccccc1 [KX2-391] | – | – | – | – | – | – | ΔTm Average: 0.1 °C; ΔTm Run 1: 0.2 °C; ΔTm Run 2: 0 °C
10 | COc1cc2nccc(Oc3ccc(NC(=O)Nc4ccc(F)cc4F)c(F)c3)c2cc1OC [Ki8751] | 0.0 | -0.2 | -0.1 | – | – | – | –
11 | COc1ccccc1-c1cc(Nc2cccc(CS(N)(=O)=O)c2)ncn1 [LDC000067] | -0.1 | 0.0 | -0.1 | – | – | – | –
12 | Cc1cc(Nc2ncc(Cl)c(Nc3ccccc3S(=O)(=O)C(C)C)n2)c(OC(C)C)cc1C1CCNCC1 [LDK378] | – | – | – | 0.4 | 0 | 0.2 | –
13 | COc1ncccc1-c1cnn2ccc(N3CCN(C(=O)OC(C)C)CC3)nc12 [LP-935509 (AAK1)] | -0.2 | -0.4 | -0.3 | – | – | – | –
14 | O=c1cc(N2CCOCC2)oc2c(-c3ccccc3)cccc12 [LY294002] | – | – | – | 0.5 | 0.2 | 0.3 | –
15 | CC(C)(C)Cn1c(N)nc2ccc(-c3[nH]c(C(C)(C)C)nc3-c3ccc(F)cc3)nc21 [LY2228820] | – | – | – | -0.3 | -0.3 | -0.3 | –
16 | Cc1cc(Nc2cc(CN3CCOCC3)c3nc(C)c(Cc4ccc(Cl)cc4F)n3n2)n[nH]1 [LY2784544] | – | – | – | -0.3 | -0.4 | -0.4 | –
17 | CCN1CCN(Cc2ccc(Nc3ncc(F)c(-c4cc(F)c5nc(C)n(C(C)C)c5c4)n3)nc2)CC1 [LY2835219] | – | – | – | 2.2 | 2.1 | 2.2 | –
18 | CS(=O)(=O)CCNCc1ccc(-c2ccc3ncnc(Nc4ccc(OCc5cccc(F)c5)c(Cl)c4)c3c2)o1.Cc1ccc(S(=O)(=O)O)cc1.Cc1ccc(S(=O)(=O)O)cc1 [Lapatinib (GW-572016) Ditosylate] | 0.3 | 0.0 | 0.1 | – | – | – | –
19 | COc1cc2nccc(Oc3ccc(NC(=O)NC4CC4)c(Cl)c3)c2cc1C(N)=O [Lenvatinib (E7080)] | -0.1 | -0.4 | -0.3 | – | – | – | –
20 | Cc1ccc(F)c(NC(=O)Nc2ccc(-c3cccc4[nH]nc(N)c34)cc2)c1 [Linifanib (ABT-869)] | 0.3 | 0.6 | 0.4 | – | – | – | –
21 | Cc1c(F)cc(C(=O)NC2CC2)cc1-c1ccc(C(=O)NCC(C)(C)C)cn1 [Losmapimod (GW856553X)] | 0.4 | 0.1 | 0.2 | – | – | – | –
22 | Cn1cnc2c(F)c(Nc3ccc(Br)cc3F)c(C(=O)NOCCO)cc21 [MEK162 (ARRY-162)] | -0.2 | -0.4 | -0.3 | – | – | – | –
23 | COCCNCc1ccc(-c2cc3nccc(Oc4ccc(NC(=S)NC(=O)Cc5ccc(F)cc5)cc4F)c3s2)nc1 [MGCD-265] | – | – | – | 0 | -0.1 | -0.1 | –
24 | Cl.Cl.NC1(c2ccc(-c3nc4ccn5c(=O)[nH]nc5c4cc3-c3ccccc3)cc2)CCC1 [MK-2206 2HCl] | -0.1 | -0.1 | -0.1 | – | – | – | –
